Entries after “also recorded” stand apart in the source; their conditions may differ.
Assays:
diabetic rats [1] = conditions: diabetic rat, 30 days after sciatic nerve cutting; diet: 200 mg/kg acetyl L-carnitine, 200 mg/kg carnitine mixture, 50 mg/kg α-lipoic acid daily; cited from earlier work
mice and rats = conditions: mice and rats, cited from earlier work
rats = conditions: 10 mg/kg cisplatin s.c. seven days, oral 300 mg/kg acetyl L-carnitine, 300 mg/kg carnitine mixture, 50 mg/kg α-lipoic acid; cited from earlier work
[2] = tested on: streptozotocin-induced diabetic rats; conditions: 20 mg/kg/day for two weeks, six weeks after diabetes induction; vs untreated diabetic rats; cited from earlier work
[3] = tested on: diabetic polyneuropathy patients; conditions: cited from earlier work
diabetic rats [4] = conditions: streptozocin diabetic rats, sciatic nerve; amount administered not specified; cited from earlier work
Wobbler mice = conditions: twenty days oral, acetyl L-carnitine 200 mg/kg, carnitine mixture 200 mg/kg, α-lipoic acid 50 mg/kg; cited from earlier work
C. elegans [5] = experiment: Toxicity testing in C. elegans, 96 well plate, bacterial clearance (OD620); assay type: in vivo; conditions: highest concentration tested, 2 mM; L1-stage N2 animals, OD620 up to 44 hours; listed as LC
Experimental: The work plan included a i) characterization of the compounds for toxicity in C. elegans and then, using subtoxic concentrations, a ii) characterization of compound effects on neuronal sensitivity as detected by TAV technology. Toxicity characterization follows a well established standard operating protocol used in previous toxicity-type assays in C. elegans. The initial TAV characterization of compound-mediated effects on C. elegans used a number of compound concentrations and incubation times that were selected by NemaRx as being most likely to detect any TAV-related effects that the compounds may have. […] 0% provides a ‘background’ measure, 6% typically gives intermediate TAV responses (and as such should provide a good starting point to detect compound-mediated increased TAV responses), and 12% usually gives robust responses. No obvious effects were detected for either of the four compounds. While the experimental setup provides a good first pass, the limitation lies in the relatively small number of animals that are assayed at each intensity (30). Subtle effects compound-mediated up-regulation at 6% laser intensity may be missed. • Single Intensity Testing: The two highest non-toxic compound concentrations for each of the four compounds were tested at 6% laser intensity. The number of datapoints collected was between 50-80 LA and >100 for the three other compounds. […] The experiment was carried out in quadruplicate. […] Stock Dilution Setup
Two 96 well microtiter plates set up which were incubated at 20 C (both 96 well plates were identical, i.e. the experiment was done in duplicate). Each well on the plates was set up with 100 L1-stage N2 animals in NGM with a 1:20 dilution of concentrated HB101 E. coli (food source) in a volume of 50 μl. Compounds (see below) were then added to the wells. For water controls and compound stocks/dilutions in water (DH LA, NAC) 1 μl was added to each well (1:50 dilutions). For DMSO controls and compound stocks/dilutions in DMSO (LA) 0.5 μl was added to each well (1:100 dilutions). […]

C. elegans [6] = experiment: Thermal avoidance (TAV) 11 step dose response testing; assay type: in vivo; conditions: highest concentration of LC, laser intensities 0% to 100% in 10% intervals, quadruplicate
Experimental: One 24 well microtiter plate was set up and incubated overnight on the shaker at 20° C. Each well on the plate was set up with 600 L3/L4-stage N2 animals in NGM with a 1:20 dilution of concentrated HB101 E. coli (food source) in a volume of 300 μl. Before the animal/HB101 solution was added, test compounds were pipetted into wells. For DMSO controls and compound stocks/dilutions in DMSO (LC) 3 μl was added to each well (1:100 dilutions). No OD620 measurements were taken but the animals were visually scored after 22 h incubation).
Dose Responses—setup & general notes on analysis: Same as for previous dose response experiments except that the data collection settings were modified. Per plate settings for the dose response experiments were as follows: […]

[7] = Hydrolysis study of LC Conjugate (pH/time study, followed by TLC); assay type: physicochemical
Experimental: Control: Free lipoic acid 1% solution in methanol/water
Substrate: LC Conjugate, 3% solution in methanol
A study on the stability and cleavability of LC Conjugate was performed in water at pH ranged from 5.5 to 8.0 at RT (20° C.).
The pH was adjusted using NaOH and HCl solutions.
Since substrate and cleaved products are non-UV sensitive, TLC was used to follow the progress of hydrolysis.

Row | Compound | Density of tibial nerve degenerate elements (diabetic rats [1]) [per 100 nm^2] | Number of tibial nerve degenerate elements (diabetic rats [1]) | tolerability and toxicity (mice and rats; individually or in combination at high doses) | dose that can be parenterally administered (mice and rats; parenteral) [mg/kg] | Equilibrium time (rats) [s] | sciatic endoneutral blood flow [2] | sciatic motor nerve NCV [2] | neuropathic symptoms and defects ([3]; 600 mg i.v. per day for 3 weeks) | neuropathic defects and cardiac autonomic neuropathy ([3]; subsequent oral treatment for 4-7 months) | NMCV (diabetic rats [4]) [m/sec] | % increase in running time (Wobbler mice) [%] | toxicity (C. elegans [5]) | sensitivity / response rate in 11 step dose response (C. elegans [6]; listed as LC) | sensitivity / response rate in 11 step dose response (C. elegans [6]; listed as Lipoic Acid+N-Acetyl Carnitine conjugate) | cleavability ([7]; under experimental conditions) | Rate of hydrolysis (cleavage) ([7]; water, pH 5.5 to 8.0, RT) | hydrolysis ([7]; water, pH 6.0, RT (20° C.), TLC, visual observation) | rate of hydrolysis ([7]; water, pH 7.0 and above, RT (20° C.), TLC, visual observation) | time within which almost complete hydrolysis was noted ([7]; water, pH 8.0, RT (20° C.), TLC, visual observation) [min] | stability ([7]; water, under pH 5.0, RT (20° C.), TLC, visual observation)
1 | O=C(O)CCCCC1CCSS1 (centres unmarked) [LA, Lipoic acid] | 0.20 ± 0.04 | 590 ± 0.70 | good tolerability and limited toxicity | ≤ 100 | 9.9 ± 0.8 | improved | improved | appears to reduce pain, paraethesia and numbness, and to improve neuropathic defects | reduces neuropathic defects an improves cardiac autonomic neuropathy | 39.9 ± 2.1 | 40 ± 3.9 | – | – | – | – | – | – | – | – | –
2 | Acetyl-L-Carnitine-Lipoic acid conjugate [LC Conjugate] | – | – | – | – | – | – | – | – | – | – | – | No toxic effects; also recorded: no toxicity observed | increases sensitivity not at lower stimulus intensities, but instead at higher intensities | Possible higher response rate at higher stimulus intensities | completely cleavable | pH dependent | Mild hydrolysis | quite noticeable | ≤ 90 | stable
